Test results as given in ChEMBL document CHEMBL3046249, “Synthesis and antifungal activity of cinnamic acid esters” (1996).

Assays:
Format in all cases: functional
[1] = test system: Athelia rolfsii; assay: Antimicrobial activity against Athelia rolfsii assessed as growth inhibition at 100 ppm by agar dilution method; details: Agroathelia rolfsii; read-out: GI
[2] = test system: Pythium; assay: Antimicrobial activity against Pythium sp. assessed as growth inhibition at 100 ppm by agar dilution method; details: read-out: GI
[3] = test system: Athelia rolfsii; assay: Antimicrobial activity against Athelia rolfsii assessed as growth inhibition at 10 ppm by agar dilution method; details: Agroathelia rolfsii; read-out: GI
[4] = test system: Pythium; assay: Antimicrobial activity against Pythium sp. assessed as growth inhibition at 10 ppm by agar dilution method; details: read-out: GI

| Compound | inhibition of growth at 100 ppm [1] | inhibition of growth at 100 ppm [2] | inhibition of growth at 10 ppm [3] | inhibition of growth at 10 ppm [4] |
| --- | --- | --- | --- | --- |
| Cc1ccc(C(C)C)c(OC(=O)/C=C/c2ccccc2)c1 | 45% | 54% |  |  |
| CCCOC(=O)/C=C/c1ccc(O)c(OC)c1 | 26% | 9% |  |  |
| COc1cc(/C=C/C(=O)OC(C)C)ccc1O | 38% | 18% |  |  |
| CCCCOC(=O)/C=C/c1ccc(O)c(OC)c1 | 0% | 0% |  |  |
| CCCOC(=O)/C=C/c1ccc(O)cc1 | 70% | 91% | 9% | 31% |
| CCCCOC(=O)/C=C/c1ccc(O)cc1 | 81% | 71% | 29% | 35% |
| O=C(/C=C/c1ccc(O)cc1)Oc1ccccc1 | 53% | 80% |  | 16% |
| CC(C)=CCCC(C)CCOC(=O)/C=C/c1ccc(O)cc1 (stereo not given) | 55% | 63% |  |  |
| Cc1ccc(OC(=O)/C=C/c2ccc(O)cc2)c(C(C)C)c1 | 38% | 36% |  |  |
| Cc1ccc(C(C)C)c(OC(=O)/C=C/c2ccc(O)cc2)c1 | 31% | 33% |  |  |
| COc1cc(/C=C/C(=O)Oc2ccc(C)cc2C(C)C)ccc1O | 37% | 49% |  |  |
| COc1cc(/C=C/C(=O)Oc2cc(C)ccc2C(C)C)ccc1O | 58% | 9% |  |  |
| C=CCc1ccc(OC(=O)/C=C/c2ccc(O)c(OC)c2)c(OC)c1 | 38% | 31% |  |  |
| CC(C)=CCCC(C)CCOC(=O)/C=C/c1ccccc1 (stereo not given) | 0% | 0% |  |  |
| C=CCc1ccc(OC(=O)/C=C/c2ccccc2)c(OC)c1 | 22% | 28% |  |  |
| COC(=O)/C=C/c1ccc(O)c(OC)c1 | 37% | 0% |  |  |
| O=C(O)/C=C/c1ccccc1 [CINNAMIC ACID] | 100% | 97% | 24% | 12% |
| O=C(O)/C=C/c1ccc(O)cc1 [COUMARIC ACID] | 46% | 10% |  |  |
| COC(=O)/C=C/c1ccccc1 [E-METHYL CINNAMATE] | 53% | 66% |  |  |
| CCOC(=O)/C=C/c1ccc(O)c(OC)c1 [ETHYL FERULATE] | 43% | 50% |  |  |
| CCOC(=O)/C=C/c1ccc(O)cc1 [ETHYL P-COUMARATE] | 45% | 87% | 8% | 29% |
| COc1cc(/C=C/C(=O)O)ccc1O [FERULATE] | 54% | 48% |  |  |
| CCCCCCCOC(=O)/C=C/c1ccccc1 [HEPTYL CINNAMATE] | 10% | 42% |  |  |
| CC(C)OP(=O)(OC(C)C)SCc1ccccc1 [IPROBENFOS] | 100% | 89% | 69% | 42% |
| CC(C)OC(=O)/C=C/c1ccc(O)cc1 [ISOPROPYL 3-(4-HYDROXYPHENYL)ACRYLATE] | 84% | 98% | 10% | 41% |
| COC(=O)/C=C/c1ccc(O)cc1 [METHYL P-HYDROXYCINNAMATE] | 41% | 54% |  | 0% |
| CCCCCCCCOC(=O)/C=C/c1ccccc1 [OCTYL CINNAMATE] | 13% | 56% |  |  |
| O=C(/C=C/c1ccccc1)OCCc1ccccc1 [PHENETHYL CINNAMATE] | 22% | 28% |  |  |
